Reference: patent US9266908B2, “Inhibitors of arginase and their therapeutic applications” (MARS, INCORPORATED, priority 2011, dated 2016)
pIC50: −log10 of the molar value.

Experiments:
human-Arginase-1 = biological target: T1, human-Arginase-1 (Homo sapiens, UniProt P05089); assay: Urea production in CHOK cells stably transfected with human-Arginase-1; type: cell-based; conditions: IC50 class, 5 mM arginine, 24 hours, read-out: CHOK Cell
T1 construct: expressed in transfected cells; host or cells: CHOK cells
T1 sequence (P05089 1-322): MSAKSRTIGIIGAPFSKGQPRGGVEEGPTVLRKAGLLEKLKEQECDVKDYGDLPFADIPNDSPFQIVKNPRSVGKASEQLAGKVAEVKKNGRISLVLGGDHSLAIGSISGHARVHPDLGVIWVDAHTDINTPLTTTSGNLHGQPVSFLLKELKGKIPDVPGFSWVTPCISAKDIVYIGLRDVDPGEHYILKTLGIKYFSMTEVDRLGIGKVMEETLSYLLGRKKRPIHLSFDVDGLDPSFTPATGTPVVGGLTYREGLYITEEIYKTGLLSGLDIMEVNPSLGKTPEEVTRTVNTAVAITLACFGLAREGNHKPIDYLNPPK
Method: Table 3 also provides CHOK cell based IC50 values for illustrative arginase inhibitors. IC50 values were determined by measuring the production of urea in CHOK cells stably transfected with human-Arginase-1.
Briefly, CHOK cells were stably transfected with human-arginase-1. To determiner the IC50 values for compounds in accordance with the present invention, parental CHOK cells and arginase-1 stably transfected cells were plated in a 96 well plate. Cells were plated using 200 μl of complete growth medium and incubated overnight at 37° C.
Media from each of the wells containing cells was first removed and growth media supplemented with arginine at a concentration of 5 mM was added to each well. The test compounds were dissolved in PBS buffer to the desired concentration and added to appropriate wells. The plate was then incubated at 37° C. for 24 hours. After 24 hours the plates were spun down at 3000 RPM for 5 min and 50 μl of the media were transferred to a new plate.
An aqueous solution of o-phthaldehyde, Brij, sulfuric acid, primaquine diphosphate and boric acid was added to each well and the plate was incubated for 10-15 minutes. The urea concentration in each well was determined by measuring the optical density at 520-530 nanometers using a standard curve. The IC50 values were calculated by measuring urea production at various concentrations of the inventive arginase inhibitors after subtracting the value related to the concentration of urea in control wells.

human arginase I (ARG I) = biological target: T2, human arginase I (ARG I) (Homo sapiens, UniProt P05089); assay: Inhibition of arginase I, spectrophotometric urea assay at 530 nm
T2 sequence (P05089 1-322): T1 sequence (P05089 1-322)
Method: (§1) Inhibition of arginase I (ARG I) and arginase II (ARG II) by the inventive compounds is followed spectrophotometrically at 530 nm. […] Solutions of arginase I and II are prepared in 100 mM sodium phosphate buffer, pH 7.4 containing 1 mg/ml of OVA to give an arginase stock solution at a final concentration of 100 ng/ml.
(§2) To each well of a 96-well microtiter plate is add 40 μl of enzyme, 10 μl of an inventive compound and 10 μl of enzyme substrate (L-arginine+ manganese sulfate). For wells that are used as positive controls, only the enzyme and its substrate are added, while wells used as negative controls contain only manganese sulfate.
(§3) After incubating the microtiter plate at 37° C. for 60 minutes, 150 μl of a urea reagent obtained by combining equal proportions (1:1) of reagents A and B is added to each well of the microtiter plate to stop the reaction. The urea reagent is made just before use by combining Reagent A (10 mM o-phthaldialdehyde, and 0.4% polyoxyethylene (23) lauryl ether (w/v) in 1.8 M sulfuric acid) with Reagent B (1.3 mM primaquine diphosphate, 0.4% polyoxyethylene (23) lauryl ether (w/v), 130 mM boric acid in 3.6 M sulfuric acid). After quenching the reaction mixture, the microtiter plate is allowed to stand for an additional 10 minutes at room temperature to allow color development. […] The normalized OD is then used to generate a dose-response curve by plotting the normalized OD values against log [concentration] and using regression analysis to compute the IC50 values.

arginase II (ARG II) = biological target: T3, arginase II (ARG II) (Homo sapiens, UniProt P78540); assay: Inhibition of arginase II, spectrophotometric urea assay at 530 nm
T3 sequence (P78540 23-354): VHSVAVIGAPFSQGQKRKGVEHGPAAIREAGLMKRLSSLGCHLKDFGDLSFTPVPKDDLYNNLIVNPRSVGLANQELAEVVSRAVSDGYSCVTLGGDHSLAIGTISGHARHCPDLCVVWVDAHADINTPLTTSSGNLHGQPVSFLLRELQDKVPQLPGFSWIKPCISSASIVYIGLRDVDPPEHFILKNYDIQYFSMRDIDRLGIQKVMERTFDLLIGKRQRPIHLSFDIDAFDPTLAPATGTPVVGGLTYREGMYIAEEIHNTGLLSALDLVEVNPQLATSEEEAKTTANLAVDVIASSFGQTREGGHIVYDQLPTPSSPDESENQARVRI
Method: as §1, §2, §3

pIC50 (human-Arginase-1) | pIC50 (human arginase I (ARG I)) | pIC50 (arginase II (ARG II)) | SMILES
4.60 to 6.00 | 7.60 to 10.00 | 7.60 to 10.00 | Cc1ccc(F)c(-c2ccc(CN[C@H]3C[C@@H](C(N)(CCCCB(O)O)C(=O)O)C3)cc2F)c1 (mixture of isomers) [Example 52, (S)-2-amino-6-borono-2-((1s,3R)-3-((2,2′-difluoro-5′-methylbiphenyl-4-yl)methylamino)cyclobutyl)hexanoic acid]
4.00 to 4.59 | 7.60 to 10.00 | 7.00 to 7.59 | NC(CCCCB(O)O)(C(=O)O)[C@H]1C[C@@H](NCc2ccc(-c3ccc(F)cc3)c(F)c2)C1 (mixture of isomers) [Example 53, (S)-2-amino-6-borono-2-((1s,3R)-3-((2,4′-difluorobiphenyl-4-yl)methylamino)cyclobutyl)hexanoic acid]
4.00 to 4.59 | 7.00 to 7.59 | 7.00 to 7.59 | NC(CCCCB(O)O)(C(=O)O)[C@H]1C[C@@H](NCc2ccc(-c3ccccc3F)c(F)c2)C1 (mixture of isomers) [Example 54, (S)-2-amino-6-borono-2-((1s,3R)-3-((2,2′-difluorobiphenyl-4-yl)methylamino)cyclobutyl)hexanoic acid]
4.00 to 4.59 | 7.00 to 7.59 | 7.00 to 7.59 | NC(CCCCB(O)O)(C(=O)O)[C@H]1C[C@@H](NCc2ccc(-c3ccc(F)cc3F)c(F)c2)C1 (mixture of isomers) [Example 55, (S)-2-amino-6-borono-2-((1s,3R)-3-((2,2′,4′-trifluorobiphenyl-4-yl)methylamino)cyclobutyl)hexanoic acid]
4.00 to 4.59 | 7.00 to 7.59 | 7.00 to 7.59 | NC(CCCCB(O)O)(C(=O)O)[C@H]1C[C@@H](NCc2ccc(Cc3ccccc3)cc2)C1 (mixture of isomers) [Example 57, (S)-2-amino-2-((1s,3R)-3-(4-benzylbenzylamino)cyclobutyl)-6-boronohexanoic acid]
4.60 to 6.00 | 7.00 to 7.59 | 7.00 to 7.59 | NC(CCCCB(O)O)(C(=O)O)[C@H]1C[C@@H](NCc2c(F)cc(-c3ccc(Cl)cc3)cc2F)C1 (mixture of isomers) [Example 58, (S)-2-amino-6-borono-2-((1s,3R)-3-((4′-chloro-3,5-difluorobiphenyl-4-yl)methylamino)cyclobutyl)hexanoic acid]
4.00 to 4.59 | 7.60 to 10.00 | 7.00 to 7.59 | NC(CCCCB(O)O)(C(=O)O)[C@H]1C[C@@H](NCC2CCN(c3ccc(C(F)(F)F)cc3)CC2)C1 (mixture of isomers) [Example 60, (S)-2-amino-6-borono-2-((1s,3R)-3-((1-(4-(trifluoromethyl)phenyl)piperidin-4-yl)methylamino)cyclobutyl)hexanoic acid]
4.00 to 4.59 | 7.00 to 7.59 | 7.00 to 7.59 | NC(CCCCB(O)O)(C(=O)O)[C@H]1CC[C@H](NCc2ccc(-c3ccccc3)cc2)C1 (stereo in doubt) [Example 43]
4.60 to 6.00 | 7.60 to 10.00 | 7.00 to 7.59 | NC(CCCCB(O)O)(C(=O)O)[C@H]1C[C@@H](NC2Cc3ccccc3C2)C1 (stereo partly drawn) [Example 5, (S)-2-amino-6-borono-2-((1s,3R)-3-(2,3-dihydro-1H-inden-2-ylamino)cyclobutyl)hexanoic acid]
4.00 to 4.59 | 7.00 to 7.59 | 7.00 to 7.59 | CC(C)(C)c1ccc(CN[C@H]2C[C@@H](C(N)(CCCCB(O)O)C(=O)O)C2)cc1 (stereo partly drawn) [Example 6, (S)-2-amino-6-borono-2-((1s,3R)-3-(4-tert-butylbenzylamino)cyclobutyl)hexanoic acid]
4.60 to 6.00 | 7.60 to 10.00 | 7.60 to 10.00 | NC(CCCCB(O)O)(C(=O)O)[C@H]1C[C@@H](NCc2cccc(-c3ccc(C(F)(F)F)cc3)c2)C1 (stereo partly drawn) [Example 8, (S)-2-amino-6-borono-2-((1s,3R)-3-((4′-(trifluoromethyl)biphenyl-3-yl)methylamino)cyclobutyl)hexanoic acid]
4.00 to 4.59 | 7.60 to 10.00 | 7.60 to 10.00 | NC(CCCCB(O)O)(C(=O)O)[C@H]1C[C@@H](NCc2cccc(-c3ccc(Cl)cc3)c2)C1 (stereo partly drawn) [Example 9, (S)-2-amino-6-borono-2-((1s,3R)-3-((4′-chlorobiphenyl-3-yl)methylamino)cyclobutyl)hexanoic acid]
4.60 to 6.00 | 7.60 to 10.00 | 7.60 to 10.00 | NC(CCCCB(O)O)(C(=O)O)[C@H]1C[C@@H](NCc2ccc(F)c3ccccc23)C1 (stereo partly drawn) [Example 10, (S)-2-amino-6-borono-2-((1s,3R)-3-((4-fluoronaphthalen-1-yl)methylamino)cyclobutyl)hexanoic acid]
4.60 to 6.00 | 7.60 to 10.00 | 7.00 to 7.59 | NC(CCCCB(O)O)(C(=O)O)[C@H]1C[C@@H](NCc2cccc3c(F)cccc23)C1 (stereo partly drawn) [Example 11, (S)-2-amino-6-borono-2-((1s,3R)-3-((5-fluoronaphthalen-1-yl)methylamino)cyclobutyl)hexanoic acid]
4.00 to 4.59 | 7.00 to 7.59 | 7.60 to 10.00 | NC(CCCCB(O)O)(C(=O)O)[C@H]1C[C@@H](NCc2c3ccccc3cc3ccccc23)C1 (stereo partly drawn) [Example 12, (S)-2-amino-2-((1s,3R)-3-(anthracen-9-ylmethylamino)cyclobutyl)-6-boronohexanoic acid]
4.00 to 4.59 | 7.00 to 7.59 | 7.00 to 7.59 | NC(CCCCB(O)O)(C(=O)O)[C@H]1C[C@@H](NCc2ccccc2N2CCOCC2)C1 (stereo partly drawn) [Example 13, (S)-2-amino-6-borono-2-((1s,3R)-3-(2-morpholinobenzylamino)cyclobutyl)hexanoic acid]
4.60 to 6.00 | 7.00 to 7.59 | 7.00 to 7.59 | NC(CCCCB(O)O)(C(=O)O)[C@H]1C[C@@H](NCc2ccc3c(c2)CCO3)C1 (stereo partly drawn) [Example 15, (S)-2-amino-6-borono-2-((1s,3R)-3-((2,3-dihydrobenzofuran-5-yl)methylamino)cyclobutyl)hexanoic acid]
4.60 to 6.00 | 7.60 to 10.00 | 7.60 to 10.00 | NC(CCCCB(O)O)(C(=O)O)[C@H]1C[C@@H](NCc2ccc(-c3ccc(Cl)c(Cl)c3)cc2)C1 (stereo partly drawn) [Example 16, (S)-2-amino-6-borono-2-((1s,3R)-3-((3′,4′-dichlorobiphenyl-4-yl)methylamino)cyclobutyl)hexanoic acid]
4.60 to 6.00 | 7.60 to 10.00 | 7.60 to 10.00 | NC(CCCCB(O)O)(C(=O)O)[C@H]1C[C@@H](NCc2ccc(-c3ccc(Cl)cc3)cc2)C1 (stereo partly drawn) [Example 17, (S)-2-amino-6-borono-2-((1s,3R)-3-((4′-chlorobiphenyl-4-yl)methylamino)cyclobutyl)hexanoic acid]
4.60 to 6.00 | 7.60 to 10.00 | 7.60 to 10.00 | NC(CCCCB(O)O)(C(=O)O)[C@H]1C[C@@H](NCc2ccc(-c3ccc(C(F)(F)F)cc3)cc2)C1 (stereo partly drawn) [Example 18, (S)-2-amino-6-borono-2-((1s,3R)-3-((4′-(trifluoromethyl)biphenyl-4-yl)methylamino)cyclobutyl)hexanoic acid]
4.00 to 4.59 | 7.60 to 10.00 | 7.00 to 7.59 | NC(CCCCB(O)O)(C(=O)O)[C@H]1C[C@@H](NCc2ccc(-c3ccc(F)cc3)cc2)C1 (stereo partly drawn) [Example 19, (S)-2-amino-6-borono-2-((1s,3R)-3-((4′-fluorobiphenyl-4-yl)methylamino)cyclobutyl)hexanoic acid]
4.00 to 4.59 | 7.60 to 10.00 | 7.60 to 10.00 | NC(CCCCB(O)O)(C(=O)O)[C@H]1C[C@@H](NCc2ccc(Oc3ccc(Cl)cc3)cc2)C1 (stereo partly drawn) [Example 21, (S)-2-amino-6-borono-2-((1s,3R)-3-(4-(4-chlorophenoxy)benzylamino)cyclobutyl)hexanoic acid]
4.00 to 4.59 | 7.00 to 7.59 | 7.00 to 7.59 | NC(CCCCB(O)O)(C(=O)O)[C@H]1C[C@@H](NCc2ccccc2-c2ccc(Cl)cc2)C1 (stereo partly drawn) [Example 22, (S)-2-amino-6-borono-2-((1s,3R)-3-((4′-chlorobiphenyl-2-yl)methylamino)cyclobutyl)hexanoic acid]
4.60 to 6.00 | 7.00 to 7.59 | 7.60 to 10.00 | NC(CCCCB(O)O)(C(=O)O)[C@H]1C[C@@H](NCc2ccc(-c3ccccc3)nc2)C1 (stereo partly drawn) [Example 23, (S)-2-amino-6-borono-2-((1s,3R)-3-((6-phenylpyridin-3-yl)methylamino)cyclobutyl)hexanoic acid]
